Data set [1] concerns the target T1, human eIF4E (heIF4E) (Homo sapiens, UniProt P06730).
T1 construct: The thermal stability of human full-length eIF4E (heIF4E) was analyzed; made in house
Description: Thermal stabilization of heIF4E by differential scanning fluorimetry (DSF). The settings on record: 1% DMSO; for Relative Change in Affinity to m^7GMP: DSF appK ratio; for Kd: from ΔTm versus ligand concentration, single site ligand binding model, read-out: appK ± SE (apparent affinity to heIF4E). Format: binding. On the procedure:
The thermal stability of human full-length eIF4E (heIF4E) was analyzed using differential scanning fluorimetry (DSF), similar to that described previously for murine eIF4E [30]. heIF4E was expressed and purified as described earlier. The assay sample (20 μL) contained 5× SYPRO Orange (Sigma Aldrich, St. Louis, MO, USA) and 4 μM of heIF4E (final concentration) in HEPES/KOH with 100 mM KCl, 0.5 mM EDTA, and 1 mM DTT (pH 7.2). The tested compounds, as 10× stocks in 10% DMSO, were added to the final concentration at a range from 1 μM to 200 μM. DMSO at a 1% final concentration was then added to the control reactions without any compounds. […] The melting temperature (Tm) was determined as the minimum of the first negative derivative with the built-in CFX Manager Software (Bio-Rad).
In general terms: In DSF a fluorescence change marks the thermal transition of the protein.

The subject of data set [2] is cap-dependent translation in rabbit reticulocyte lysate (RRL). The settings on record: cited from earlier work; for IC50: RRL, water solutions without DMSO, previously determined, read-out: IC50^WATER ± SE; for times more potent inhibition than the standard dinucleotide m^7GpppG: pure water without DMSO.
The test system is the same in data set [3]. Nature of the data set: Inhibition of cap-dependent translation of ARCA-capped luciferase mRNA in rabbit reticulocyte lysate (RRL). In kind it is biochemical. The following applies: for Inhibition Relative to m^7GMP IC50^DMSO (m^7GMP)/ IC50^DMSO (Cap Analogue) / Inhibition Relative to m^7GpppG IC50^DMSO (m^7GpppG)/ IC50^DMSO (Cap Analogue): 1% DMSO; for IC50: ARCA-capped luciferase mRNA, 1% DMSO final concentration, read-out: IC50^DMSO ± SE. On the procedure:
To estimate the ability of the newly synthesized double-modified nucleotides to inhibit cap-dependent translation, the […] translation system from rabbit reticulocytes lysate (RRL) was used according to previously described procedures. This procedure was implemented because it mimics the competition between the cap analogue and the mRNA in the all-natural system. Briefly, experiments were performed in a micrococcal nuclease-treated RRL using an in vitro-transcribed, ARCA-capped, β-globin 5′ UTR containing mRNA encoding firefly luciferase to allow for the determination of protein synthesis by luminometry. […] Initially, the compounds were prepared in an aqueous solution containing 10% DMSO, and inhibition was measured at a final concentration of 1% DMSO. Incubations were conducted at several series of inhibitor concentrations in three independent measurement series (Figure 4).
Stock solutions were subsequently used for serial dilutions (in 10% DMSO). […] Experiments of the inhibition of the cap-dependent translation in rabbit reticulocyte lysate (Flexi RRL System, Promega) were performed as previously described. […] Next, 1.25 μL of the tested compound (as a solution in 10% DMSO) and m2^7,3′OGpppG-capped luciferase mRNA (to a final concentration of 5 ng/μL) was added to the reaction, and the translation mixture (12.5 μL final volume) was incubated for an additional 60 min. As a reference, reactions with DMSO (1.25 μL of 10% solution) were prepared. The reactions were stopped by chilling on ice, and the luciferase activity was determined in a Glomax luminometer (Promega). The IC50 values were obtained by fitting to the experimental data a theoretical curve that describes the extent of inhibition as a function of competitive inhibitor (e.g., cap analogue) concentration.

A short description of data set [4]: Solubility in water. Format: physicochemical.
Data set [5] has as its system cap-dependent translation. The following applies: 1% DMSO solution; cited from earlier work.
[6] abbreviates: listed as (4-(diOCH3-bn)-tz-CH2)2bn^7GpppG (4).

Read-outs that look alike come from different tables or passages of the source. Bounds are passed on as bounds.

In general, IC50 refers to the concentration at which inhibition is half-maximal.

T1 sequence (P06730 whole entry): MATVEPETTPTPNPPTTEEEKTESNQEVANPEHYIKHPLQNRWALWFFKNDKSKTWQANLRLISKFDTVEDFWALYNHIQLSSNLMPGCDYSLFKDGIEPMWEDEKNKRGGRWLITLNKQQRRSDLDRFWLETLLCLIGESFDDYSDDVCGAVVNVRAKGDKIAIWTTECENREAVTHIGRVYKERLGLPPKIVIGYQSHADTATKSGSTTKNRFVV

`COc1cccc(OC)c1OCCCn1cc(CNc2nc3c(c(=O)[nH]2)[n+](C)cn3[C@@H]2O[C@H](COP(=O)([O-])O)[C@@H](O)[C@H]2O)nn1` [compound 2, (4-(diOCH3-bn)-tz-CH2)2m^7GMP]: in data set [1], the “Relative Change in Affinity to m^7GMP” value was found to be 1.8. Further, the Kd in data set [1] (DSF) is 13.3 ± 3.45 µM. Moreover, the IC50 in data set [2] was 2 ± 0.1 µM. In addition, in data set [3], the “Inhibition Relative to m^7GMP IC50^DMSO (m^7GMP)/ IC50^DMSO (Cap Analogue)” value is reported as 10.67, the “Inhibition Relative to m^7GpppG IC50^DMSO (m^7GpppG)/ IC50^DMSO (Cap Analogue)” value is listed as 2.47 and the IC50 was determined as 1.8 ± 0.21 µM.
For the compound `Cn1c[n+]([C@@H]2O[C@H](COP(=O)(O)OP(=O)([O-])OP(=O)(O)OC[C@H]3O[C@@H](n4cnc5c(=O)[nH]c(N)nc54)[C@H](O)[C@@H]3O)[C@@H](O)[C@H]2O)c2nc(N)[nH]c(=O)c21` [m^7GpppG], the IC50 was 8.6 ± 0.7 µM in data set [2] and 4.45 ± 0.61 µM in data set [3].
On to `Cn1c[n+]([C@@H]2O[C@H](COP(=O)([O-])OP(=O)(O)OP(=O)(O)O)[C@@H](O)[C@H]2O)c2nc(N)[nH]c(=O)c21` [m^7GTP], for which the IC50 in data set [2] was 2.3 ± 0.2 µM; in data set [3], 1.09 ± 0.14 µM.
Regarding `Nc1nc2c(ncn2[C@@H]2O[C@H](COP(=O)(O)OP(=O)(O)OP(=O)(O)OC[C@H]3O[C@@H](n4c[n+](Cc5ccccc5)c5c(=O)[nH]c(N)nc54)[C@H](O)[C@@H]3O)[C@@H](O)[C@H]2O)c(=O)[nH]1` [bn^7GpppG], in data set [2], the “times more potent inhibition than the standard dinucleotide m^7GpppG” value is on record as “approximately 1.5”.
In the case of `COc1cccc(OC)c1OCCCn1cc(CNc2nc3c(c(=O)[nH]2)[n+](Cc2ccccc2)cn3[C@@H]2O[C@H](COP(=O)(O)OP(=O)([O-])OP(=O)(O)OC[C@H]3O[C@@H](n4cnc5c(=O)[nH]c(N)nc54)[C@H](O)[C@@H]3O)[C@@H](O)[C@H]2O)nn1` [compound 4], the “Relative Change in Affinity to m^7GMP” value in data set [1] (setting [6]) worked out at 6.8. Also, the “ΔTm of heIF4E” value in data set [1] (DSF, below a 10 μM final concentration) was ~ 10 °C. Also, the Kd in data set [1] (DSF) was 3.58 ± 1.09 µM. Besides, in data set [3], the “Inhibition Relative to m^7GMP IC50^DMSO (m^7GMP)/ IC50^DMSO (Cap Analogue)” value was found to be 80.08, the “Inhibition Relative to m^7GpppG IC50^DMSO (m^7GpppG)/ IC50^DMSO (Cap Analogue)” value is given as around 18 and the 50% inhibitory concentration (IC50) is 0.24 ± 0.02 µM. For the same compound, in data set [3] (setting [6]), the “Inhibition Relative to m^7GpppG IC50^DMSO (m^7GpppG)/ IC50^DMSO (Cap Analogue)” value was 18.54.
Take `COc1cccc(OC)c1OCCCn1cc(CNc2nc3c(c(=O)[nH]2)[n+](Cc2ccccc2)cn3[C@@H]2O[C@H](COP(=O)([O-])O)[C@@H](O)[C@H]2O)nn1` [compound 3]: in data set [4], the solubility in water result is “only partially soluble in water”. In data set [1], the “Relative Change in Affinity to m^7GMP” value worked out at 1.7. In addition, the Kd in data set [1] (DSF) came out at 14.7 ± 1.14 µM. For the same compound, in data set [3], the “Inhibition Relative to m^7GMP IC50^DMSO (m^7GMP)/ IC50^DMSO (Cap Analogue)” value amounted to 7.11, the “Inhibition Relative to m^7GpppG IC50^DMSO (m^7GpppG)/ IC50^DMSO (Cap Analogue)” value came to 1.64 and the IC50 was 2.7 ± 0.3 µM.
Turning to `Cn1c[n+]([C@@H]2O[C@H](COP(=O)(O)O)[C@@H](O)[C@H]2O)c2nc(N)[nH]c(=O)c21` [m^7GMP], the IC50 in data set [2] was above 50 µM; in data set [3] it was 19.2 ± 3.31 µM.
With `Nc1nc2c(c(=O)[nH]1)[n+](Cc1ccccc1)cn2[C@@H]1O[C@H](COP(=O)([O-])O)[C@@H](O)[C@H]1O` [compound 1, 7-benzylguanosine monophosphate], the “inhibitory properties compared to m^7GMP (times better)” value in data set [5] was 1.5.
On to (4-(diOCH3-bn)-tz-CH2)^2m^7GpppG, for which the “times more potent inhibition than the standard dinucleotide m^7GpppG” value in data set [2] was around 6.9.

(Values after publication PMC11123931, “The Synergistic Effect of N2 and N7 Modifications on the Inhibitory Efficacy of mRNA Cap Analogues” (Pharmaceuticals, 2024).)
